The target of data set [1] is TFRC. Particulars: ASO.
For data set [2], the target named is CD44. Conditions: ASO.

These antisense oligonucleotides have a phosphorothioate backbone; sugars and methylation of C are not fully specified.
Further: test concentration or dose not given here.

As to AAACAAGTCTACCGTTCT, in data set [1], the remaining target (mRNA or protein) (fraction of control) is no less than 1.
Still for that read-out and setting: with AAACCTTGAAGTTGCTGG the figure was 0.93; with AACTGGTTCTCTTTCAAT, 0.95; with AAGCTGCTGCCTAAAGAC, no less than 1.
The same measure, in the same setting: with AATTATGGGAAACACTGT the figure was no less than 1.
For ACACTGCTCCCGATAATG, the remaining target (mRNA or protein) (fraction of control) in data set [1] is no less than 1.
In data set [1], ACGCCAGACTTTGCTGAG displayed a remaining target (mRNA or protein) (fraction of control) of 0.38.
With ACTGACCAGCGACCTCTG, the remaining target (mRNA or protein) (fraction of control) in data set [1] is 0.58.
On the same count and under the same terms, with AGACCAGCCCTTAGGATT the figure was 0.56.
Same read-out and setting: with AGAGGCAGTTCCCATTAC the figure was 0.46; with AGATCCCTCACAAATGAA, no less than 1.
On the same count and under the same terms, with AGCTATGGGTATCACATT the figure was no less than 1; with AGGAAACCTGCTACATTC, no less than 1; with AGTCCAAGATAAAAGAGG, no less than 1.
Sequence ATAGCAGATACTTCCACT registered a remaining target (mRNA or protein) (fraction of control) in data set [1] of 0.96.
In data set [1], ATATTGAGCCTGTTAGCA gave a remaining target (mRNA or protein) (fraction of control) of 0.95.
The same measure, in the same setting: with ATCTCAGTGCCAAAAGGA the figure was no less than 1; with ATTAAGTAGAGGACCTGG, 0.66.
For ATTCTTATCTGGTCAGTG, the remaining target (mRNA or protein) (fraction of control) in data set [1] is no less than 1.
Same read-out and setting: the value for ATTCTTGCTTTCTGAGGT was no less than 1.
On the same count and under the same terms, with CAAAGTAAGCGAACCACT the figure was no less than 1.
With CAACCCTAACTGTAGAAA, the remaining target (mRNA or protein) (fraction of control) in data set [1] was no less than 1.
The sequence CACAGCAATAGTCCCATA gave a remaining target (mRNA or protein) (fraction of control) in data set [1] of 0.67.
In data set [1], CACCCGAACCAGGAATCT yielded a remaining target (mRNA or protein) (fraction of control) of no less than 1.
In turn, CACGAGGGTCGGTGTAGT had a remaining target (mRNA or protein) (fraction of control) in data set [1] of no less than 1.
In turn, CACTTTGTTCAACTCAGG came in with a remaining target (mRNA or protein) (fraction of control) in data set [1] of no less than 1.
The sequence CAGCAAGTTTCATCTCCA yielded a remaining target (mRNA or protein) (fraction of control) in data set [1] of 0.83.
Take CAGCCCCGCAGGATGAAG: the remaining target (mRNA or protein) (fraction of control) in data set [1] was no less than 1.
For the sequence CATGTCCAAAGAATGAAA, the remaining target (mRNA or protein) (fraction of control) in data set [1] worked out at 0.95.
Turning to CATTCTGAACTGCCACAC, the remaining target (mRNA or protein) (fraction of control) in data set [1] came out at 0.62.
CCAATCATAAATCCAATC gave a remaining target (mRNA or protein) (fraction of control) in data set [1] of no less than 1.
In turn, CCACGAGCAGAATACAGC displayed a remaining target (mRNA or protein) (fraction of control) in data set [1] of no less than 1.
Same read-out and setting: with CCCTGCTCTGACAATCAC the figure was 0.9; with CCGAGATGGTGGAAACTG, no less than 1.
Still for that read-out and setting: with CCGCCACAGCCCCTTCCC the figure was 0.95.
In data set [1], CCTCCGTCCCGAGCCGCC displayed a remaining target (mRNA or protein) (fraction of control) of 0.43.
Same read-out and setting: the value for CGCTTTCCCGCTCCCCGT was no less than 1; that for CGGATGCTTCACATTTTG was no less than 1.
As for CGGTTCCTGCCAGTCTCT, the remaining target (mRNA or protein) (fraction of control) in data set [1] worked out at 0.54.
As for CTACCCCTTTACAATAGC, the remaining target (mRNA or protein) (fraction of control) in data set [1] was determined as 0.96.
In data set [2], CTCAGCGGCACGAGGCAG showed a remaining target (mRNA or protein) (fraction of control) of 0.91.
For CTCATTGGCAAGAAAACA, the remaining target (mRNA or protein) (fraction of control) in data set [1] came out at 0.94.
The same measure, in the same setting: the value for CTCCGACAACTTTCTCTT was no less than 1; that for CTCTGGAGATTGTCTGGA was 0.76.
Still for that read-out and setting: the value for CTGAAGAGACCCTATGAA was 0.97.
As to CTGGACATAGCGGGTGCC, the remaining target (mRNA or protein) (fraction of control) in data set [2] was no less than 1.
Turning to CTGGCTCCTCCCTCACTG, the remaining target (mRNA or protein) (fraction of control) in data set [1] was 0.75.
Take CTGTCTTCGTCTGGGATG: in data set [2], the remaining target (mRNA or protein) (fraction of control) was no less than 1.
In data set [1], CTGTGCTGTCCAGTTTCT came in with a remaining target (mRNA or protein) (fraction of control) of 0.9.
The sequence CTGTGCTGTCGGTGATCC yielded a remaining target (mRNA or protein) (fraction of control) in data set [2] of no less than 1.
CTTGTTCACCAAATGCAC yielded a remaining target (mRNA or protein) (fraction of control) in data set [2] of no less than 1.
The same measure, in the same setting: the value for GAAAGCCTTGCAGAGGTC was 0.9.
In turn, GAACTAAATGGAGGCTTA had a remaining target (mRNA or protein) (fraction of control) in data set [1] of no less than 1.
On the same count and under the same terms, with GAAGCCCGCACTCACACT the figure was 0.8.
In data set [2], GACGACTCCTTGTTCACC yielded a remaining target (mRNA or protein) (fraction of control) of no less than 1.
Sequence GACTGTTGACTGCAATGC came in with a remaining target (mRNA or protein) (fraction of control) in data set [2] of no less than 1.
As for GACTTGCTGGCCTCTCCG, the remaining target (mRNA or protein) (fraction of control) in data set [2] is no less than 1.
In data set [2], GATTAGGCTATGGAAGGG yielded a remaining target (mRNA or protein) (fraction of control) of no less than 1.
Same read-out and setting: the value for GCAAGAATCAAAGCCAAG was no less than 1; that for GCCATTCTGGAATTTGGG was no less than 1.
Same read-out and setting: with GCCTCCAAGTGGAACTGA the figure was 0.99; with GCGGCAGGTTATATTCAA, no less than 1.
For GCGGCTCCCTATGGCTGC, in data set [1], the remaining target (mRNA or protein) (fraction of control) was no less than 1.
Regarding GCTGCTCCTTTCACTGGA, the remaining target (mRNA or protein) (fraction of control) in data set [2] was found to be 0.9.
The sequence GGAAACTGAGTGTGATTG registered a remaining target (mRNA or protein) (fraction of control) in data set [1] of no less than 1.
GGAAAGGGAAAGCAGCAT yielded a remaining target (mRNA or protein) (fraction of control) in data set [1] of 0.95.
Sequence GGCACGAGGCAGAGTCCC yielded a remaining target (mRNA or protein) (fraction of control) in data set [2] of no less than 1.
In data set [2], GGCAGGTCTGTGACTGAT returned a remaining target (mRNA or protein) (fraction of control) of no less than 1.
GGCCTCTCCGTTGAGTCC showed a remaining target (mRNA or protein) (fraction of control) in data set [2] of no less than 1.
Take GGCTTTCTGTCCTCCACA: the remaining target (mRNA or protein) (fraction of control) in data set [2] is no less than 1.
Still for that read-out and setting: the value for GGGCCCTAATTTACAAAG was 0.88.
As to GGGTTTTATTAGCAGATG, in data set [1], the remaining target (mRNA or protein) (fraction of control) was no less than 1.
Take GGTTATGTTTCCAACGGT: the remaining target (mRNA or protein) (fraction of control) in data set [2] was no less than 1.
Same read-out and setting: with GGTTGGCGATCAGGAATA the figure was no less than 1.
In turn, GGTTTCTGAACAGCGTTT had a remaining target (mRNA or protein) (fraction of control) in data set [1] of no less than 1.
In the case of GTCCTCCACAGCTCCATT, the remaining target (mRNA or protein) (fraction of control) in data set [2] is no less than 1.
For GTCTCCAGCACTCCAACT, in data set [1], the remaining target (mRNA or protein) (fraction of control) was no less than 1.
In data set [2], GTCTCCCAGAAGCATCTG displayed a remaining target (mRNA or protein) (fraction of control) of no less than 1.
With GTCTGTTTTCTCAGCATT, the remaining target (mRNA or protein) (fraction of control) in data set [1] is no less than 1.
On the same count and under the same terms, the value for GTGACACATTCAAGTGAG was no less than 1.
Sequence GTGGAGCTGAAGCATTGA gave a remaining target (mRNA or protein) (fraction of control) in data set [2] of no less than 1.
With GTGGGCAAGGTGCTATTG, the remaining target (mRNA or protein) (fraction of control) in data set [2] was no less than 1.
Still for that read-out and setting: the value for GTGTTGTTTGCTGCACAG was no less than 1.
For the sequence GTTATCGCCATCTACTTG, in data set [1], the remaining target (mRNA or protein) (fraction of control) was no less than 1.
For the sequence GTTGTGTTTGCTCCACCT, the remaining target (mRNA or protein) (fraction of control) in data set [2] turned out to be 0.92.
GTTGTTAGTCTGGAAGTA gave a remaining target (mRNA or protein) (fraction of control) in data set [1] of 0.9.
For the sequence GTTTCCAACGGTTGTTTC, the remaining target (mRNA or protein) (fraction of control) in data set [2] is no less than 1.
TAAGTGTCCCAGCTCCCT came in with a remaining target (mRNA or protein) (fraction of control) in data set [2] of 0.98.
Regarding TACACCTGCAAAGCGGCA, in data set [2], the remaining target (mRNA or protein) (fraction of control) was no less than 1.
As for TACACCTTGGATAAACTG, the remaining target (mRNA or protein) (fraction of control) in data set [1] came out at 0.93.
The same measure, in the same setting: with TACCCAAATAAGGATAAT the figure was no less than 1; with TAGAGTCTGTTTTCCAGT, no less than 1.
In data set [2], TAGCGGGTGCCATCACGG had a remaining target (mRNA or protein) (fraction of control) of no less than 1.
For the sequence TATACCTTTACCTCCAAA, the remaining target (mRNA or protein) (fraction of control) in data set [1] is 0.99.
Still for that read-out and setting: with TATCTGAGAACATCTGGG the figure was no less than 1; with TATGATGGTTCACTCACG, no less than 1.
Consider TATTGTCAGCATTTTCTT, for which, in data set [1], the remaining target (mRNA or protein) (fraction of control) is no less than 1.
Regarding TCAAAGGACTGATCCAGG, the remaining target (mRNA or protein) (fraction of control) in data set [2] was no less than 1.
For the sequence TCAACATACAACGCAAGA, in data set [1], the remaining target (mRNA or protein) (fraction of control) came out at 0.65.
On the same count and under the same terms, with TCAACCTGGTATCTCCTA the figure was 0.65.
Still for that read-out and setting: the value for TCAAGTTCTCCAGTAAAG was no less than 1.
In turn, TCATGTCCACATTCTGCA displayed a remaining target (mRNA or protein) (fraction of control) in data set [2] of 0.81.
As for TCATTTTATCCAGCAGAA, in data set [1], the remaining target (mRNA or protein) (fraction of control) was 0.79.
For TCCACTTGGCTTTCTGTC, in data set [2], the remaining target (mRNA or protein) (fraction of control) was no less than 1.
The same measure, in the same setting: with TCCATCAAAGGCATTGGG the figure was no less than 1; with TCCCAGCTCCCTGTAATG, no less than 1; with TCTCCATCTGGGCCATTG, no less than 1.
On the same count and under the same terms, with TCTTCTGCCCACACCTTC the figure was no less than 1.
The same measure, in the same setting: the value for TCTTGGTCTCTGGTAGCA was no less than 1.
The sequence TGACTGCAATGCAAACTG came in with a remaining target (mRNA or protein) (fraction of control) in data set [2] of no less than 1.
Same read-out and setting: the value for TGAGACTTGCTGGCCTCT was 0.93; that for TGCAGAGGTCAGCGGCCT was no less than 1.
As to TGCTATTGAAAGCCTTGC, in data set [2], the remaining target (mRNA or protein) (fraction of control) is no less than 1.
In data set [2], TGGGAGGTGTTGTATGTG returned a remaining target (mRNA or protein) (fraction of control) of no less than 1.
Still for that read-out and setting: the value for TGGTAGCAGGGATTCTGT was no less than 1; that for TTGACTCCCATGTGAGTG was no less than 1; that for TTGCTCCACCTTCTTGAC was no less than 1.
Same read-out and setting: with TTTCCTCCCAGGGACCAG the figure was no less than 1.
As for TTTGCTGCACAGATGGAG, the remaining target (mRNA or protein) (fraction of control) in data set [2] is no less than 1.

The record behind these values is the OligoGym collection.
